25 compounds from patent US10633353B2, “Polymerizable compound, composition, polymer, optically anisotropic body, liquid crystal display element, and organic EL display” (DIC Corporation, priority 2014, dated 2020) can be followed below.

One series can be described thus: Preservation stability of the coating liquid. The settings on record: coating liquid stored for 2 months shielded from light at 0° C.; appearance and GPC. It counts as physicochemical. The method, then: The preservation stability of the coating liquid was evaluated on a scale of A to E on the basis of the state of the coating liquid that was stored for 2 months under a condition where the coating liquid was shielded from light at 0° C.
A: No visual change in the appearance of the coating liquid was confirmed. A GPC analysis of the coating liquid confirmed that the change in the composition of the coating liquid was 1% or less.
B: No visual change in the appearance of the coating liquid was confirmed. A GPC analysis of the coating liquid confirmed that the change in the composition of the coating liquid was 2% or less.
C: A visual change in the appearance of the coating liquid was confirmed; a trace amount of insoluble components were confirmed, or a GPC analysis of the coating liquid confirmed that the change in the composition of the coating liquid was 3% or less.
D: A visual change in the appearance of the coating liquid was confirmed; insoluble components were confirmed. The ratio of the weight of the insoluble components to the total solid content was 5% or less.
E: A large amount of insoluble components were visually confirmed. The ratio of the weight of the insoluble components to the total solid content was 5% or more.
With `C=CC(=O)OCCCOc1ccc(C(=O)OCCc2ccc(OC(=O)c3ccc(OCCCOC(=O)C=C)cc3)c(/C=N/Nc3nc4cc([N+](=O)[O-])ccc4s3)c2)cc1` [1-c-23], the Preservation stability entry is listed as “B (No visual change in the appearance of the coating liquid was confirmed. A GPC analysis of the coating liquid confirmed that the change in the composition of the coating liquid was 2% or less.)”.

With `C=CC(=O)OCCCCCCOc1ccc(C(=O)Oc2ccc(-c3ccc(OC(=O)c4ccc(OCCCCCCOC(=O)C=C)cc4)cc3C=NN=C3c4ccccc4-c4ccccc43)cc2)cc1` [1-hk-86], the Preservation stability result is on record as “A (No visual change in the appearance of the coating liquid was confirmed. A GPC analysis of the coating liquid confirmed that the change in the composition of the coating liquid was 1% or less.)”.

Consider `C=CC(=O)OCCCCCCOC1CCC(C(=O)Oc2ccc(OC(=O)C3CCC(OCCCCCCOC(=O)C=C)CC3)c(/C=N/N(c3ccccc3)c3ccccc3)c2)CC1` (stereo not drawn) [1-f-21], for which the Preservation stability result is “A (No visual change in the appearance of the coating liquid was confirmed. A GPC analysis of the coating liquid confirmed that the change in the composition of the coating liquid was 1% or less.)”.

With `C=CC(=O)Oc1ccc(C(=O)Oc2ccc(OC(=O)c3ccc(OC(=O)C=C)cc3)c(/C=N/Nc3nc4ccccc4s3)c2)cc1` [1-g-35], the Preservation stability entry is listed as “B (No visual change in the appearance of the coating liquid was confirmed. A GPC analysis of the coating liquid confirmed that the change in the composition of the coating liquid was 2% or less.)”.

For the compound `C=CC(=O)Oc1ccc(C(=O)OCCc2ccc(CCOC(=O)c3ccc(OC(=O)C=C)cc3)c(/C=N/Nc3nc4ccccc4s3)c2)cc1` [1-cg-37], the Preservation stability entry is on record as “B (No visual change in the appearance of the coating liquid was confirmed. A GPC analysis of the coating liquid confirmed that the change in the composition of the coating liquid was 2% or less.)”.

For the compound `C=CC(=O)OCCCCCCOc1ccc(OC(=O)C2CCC(C(=O)OCCc3ccc(OC(=O)C4CCC(C(=O)Oc5ccc(OCCCCCCOC(=O)C=C)cc5)CC4)c(/C=N/Nc4cccc5ccccc45)c3)CC2)cc1` (stereo not drawn) [1-c-42], the Preservation stability entry is listed as “B (No visual change in the appearance of the coating liquid was confirmed. A GPC analysis of the coating liquid confirmed that the change in the composition of the coating liquid was 2% or less.)”.

Take `C=CC(=O)OCCCCCCOc1ccc(C(=O)Oc2ccc(-c3ccc(OC(=O)c4ccc(OCCCCCCOC(=O)C=C)cc4)c(/C=N/Nc4nc5ccccc5s4)c3)cc2)cc1` [1-hk-84]: the Preservation stability result was “A (No visual change in the appearance of the coating liquid was confirmed. A GPC analysis of the coating liquid confirmed that the change in the composition of the coating liquid was 1% or less.)”.

For the compound `C=CC(=O)OCCCOc1ccc(C(=O)OCCc2ccc(OC(=O)c3ccc(OCCCOC(=O)C=C)cc3)c(/C=N/Nc3nc4cc(CCC)ccc4s3)c2)cc1` [1-c-26], the Preservation stability result is recorded as “A (No visual change in the appearance of the coating liquid was confirmed. A GPC analysis of the coating liquid confirmed that the change in the composition of the coating liquid was 1% or less.)”.

Consider `C=CC(=O)OCCCCCCOc1ccc(C(=O)OCCc2ccc(OC(=O)c3ccc(OCCCCCCOC(=O)C=C)cc3)c(/C=N/Nc3nc4cc([N+](=O)[O-])ccc4s3)c2)cc1` [1-c-30], for which the Preservation stability result was “B (No visual change in the appearance of the coating liquid was confirmed. A GPC analysis of the coating liquid confirmed that the change in the composition of the coating liquid was 2% or less.)”.

Take `C=CC(=O)OCCCCOc1ccc(/C=C/C(=O)Oc2ccc(OC(=O)/C=C/c3ccc(OCCCCOC(=O)C=C)cc3)c(/C=N/Nc3nc4ccccc4s3)c2)cc1` [1-c-45]: the Preservation stability result is on record as “B (No visual change in the appearance of the coating liquid was confirmed. A GPC analysis of the coating liquid confirmed that the change in the composition of the coating liquid was 2% or less.)”.

As for `C=CC(=O)OCCCCOC1CCC(C(=O)Oc2ccc(OC(=O)C3CCC(OCCCCOC(=O)C=C)CC3)c(/C=N/Nc3nc4ccccc4s3)c2)CC1` (stereo not drawn) [1-f-18], the Preservation stability entry was “A (No visual change in the appearance of the coating liquid was confirmed. A GPC analysis of the coating liquid confirmed that the change in the composition of the coating liquid was 1% or less.)”.

`C=CC(=O)OCCCCCCOC1CCC(C(=O)Oc2ccc(OC(=O)C3CCC(OCCCCCCOC(=O)C=C)CC3)c(/C=N/Nc3nc4ccccc4s3)c2)CC1` (stereo not drawn) [1-f-19]: the Preservation stability result is reported as “A (No visual change in the appearance of the coating liquid was confirmed. A GPC analysis of the coating liquid confirmed that the change in the composition of the coating liquid was 1% or less.)”.

For the compound `C=CC(=O)OCCCCOC(=O)/C=C/c1ccc(CCC(=O)Oc2ccc(OC(=O)CCc3ccc(/C=C/C(=O)OCCCCOC(=O)C=C)cc3)c(/C=N/Nc3nc4ccccc4s3)c2)cc1` [1-cj-59], the Preservation stability result was “A (No visual change in the appearance of the coating liquid was confirmed. A GPC analysis of the coating liquid confirmed that the change in the composition of the coating liquid was 1% or less.)”.

Take `C=CC(=O)OCCCOc1ccc(C(=O)OCCc2ccc(OC(=O)c3ccc(OCCCOC(=O)C=C)cc3)c(/C=N/Nc3nc4ccccc4s3)c2)cc1` [1-c-2]: the Preservation stability entry is “A (No visual change in the appearance of the coating liquid was confirmed. A GPC analysis of the coating liquid confirmed that the change in the composition of the coating liquid was 1% or less.)”.

With `C=CC(=O)OCCCCCCOc1ccc(C(=O)Oc2ccc3cc(OCCCCCCOC(=O)C=C)ccc3c2/C=N/Nc2nc3ccccc3s2)cc1` [1-e-73], the Preservation stability entry was “A (No visual change in the appearance of the coating liquid was confirmed. A GPC analysis of the coating liquid confirmed that the change in the composition of the coating liquid was 1% or less.)”.

With `C=CC(=O)OCCCOc1ccc(OC(=O)C2CCC(COc3ccc(OCC4CCC(C(=O)Oc5ccc(OCCCOC(=O)C=C)cc5)CC4)c(/C=N/N(CCOCCOC)c4nc5ccccc5s4)c3)CC2)cc1` (stereo not drawn) [1-cmn-92], the Preservation stability entry is given as “A (No visual change in the appearance of the coating liquid was confirmed. A GPC analysis of the coating liquid confirmed that the change in the composition of the coating liquid was 1% or less.)”.

For the compound `C=CC(=O)OCCCCOC(=O)C1CCC(C(=O)OC2CCC(C(=O)Oc3ccc(OC(=O)C4CCC(OC(=O)C5CCC(C(=O)OCCCCOC(=O)C=C)CC5)CC4)c(/C=N/N(CC)c4nc5ccccc5s4)c3)CC2)CC1` (stereo not drawn) [1-f-102], the Preservation stability result is reported as “A (No visual change in the appearance of the coating liquid was confirmed. A GPC analysis of the coating liquid confirmed that the change in the composition of the coating liquid was 1% or less.)”.

In the case of `C=CC(=O)OCCCCCOc1ccc(C(=O)OCCc2ccc(OC(=O)c3ccc(OCCCCCOC(=O)C=C)cc3)c(/C=N/Nc3nc4ccccc4s3)c2)cc1` [1-c-4], the Preservation stability result was “A (No visual change in the appearance of the coating liquid was confirmed. A GPC analysis of the coating liquid confirmed that the change in the composition of the coating liquid was 1% or less.)”.

For `C=CC(=O)OCCCOc1ccc(C(=O)OCCc2ccc(CCOC(=O)c3ccc(OCCCOC(=O)C=C)cc3)c(/C=N/Nc3nc4ccccc4s3)c2)cc1` [1-c-9], the Preservation stability entry is recorded as “A (No visual change in the appearance of the coating liquid was confirmed. A GPC analysis of the coating liquid confirmed that the change in the composition of the coating liquid was 1% or less.)”.

Consider `C=CC(=O)OCCCOc1ccc(C(=O)Oc2ccc(OCCCOC(=O)C=C)cc2/C=N/Nc2nc3ccccc3s2)cc1` [1-e-69], for which the Preservation stability result is listed as “A (No visual change in the appearance of the coating liquid was confirmed. A GPC analysis of the coating liquid confirmed that the change in the composition of the coating liquid was 1% or less.)”.

`C=CC(=O)OCCCCCCOc1ccc(OCCOc2ccc(OCCOc3ccc(OCCCCCCOC(=O)C=C)cc3)c(/C=N/Nc3nc4ccccc4s3)c2)cc1` [1-c-80]: the Preservation stability entry is “A (No visual change in the appearance of the coating liquid was confirmed. A GPC analysis of the coating liquid confirmed that the change in the composition of the coating liquid was 1% or less.)”.

Turning to `C=CC(=O)OCCCOC(=O)/C=C/c1ccc(C(=O)Oc2ccc(OC(=O)c3ccc(/C=C/C(=O)OCCCOC(=O)C=C)cc3)c(/C=N/Nc3nc4ccccc4s3)c2)cc1` [1-j-61], the Preservation stability result is on record as “B (No visual change in the appearance of the coating liquid was confirmed. A GPC analysis of the coating liquid confirmed that the change in the composition of the coating liquid was 2% or less.)”.

Consider `C=CC(=O)OCCCCCCOc1ccc(C(=O)OCCc2ccc(OC(=O)c3ccc(OCCCCCCOC(=O)C=C)cc3)c(/C=N/Nc3nc(-c4ccc5ccccc5c4)cs3)c2)cc1` [1-c-34], for which the Preservation stability entry is listed as “B (No visual change in the appearance of the coating liquid was confirmed. A GPC analysis of the coating liquid confirmed that the change in the composition of the coating liquid was 2% or less.)”.

Regarding `C=CC(=O)OCCCCOc1ccc(C(=O)OCCc2ccc(OC(=O)c3ccc(OCCCCOC(=O)C=C)cc3)c(/C=N/N(CCCCCC)c3nc4ccc5ccccc5c4s3)c2)cc1` [1-c-40], the Preservation stability result was “A (No visual change in the appearance of the coating liquid was confirmed. A GPC analysis of the coating liquid confirmed that the change in the composition of the coating liquid was 1% or less.)”.

For `C=CC(=O)OCCCCCCOc1ccc(C(=O)OCCc2ccc(CCOC(=O)c3ccc(OCCCCCCOC(=O)C=C)cc3)c(/C=N/Nc3nc4ccccc4s3)c2)cc1` [1-c-12], the Preservation stability result is given as “A (No visual change in the appearance of the coating liquid was confirmed. A GPC analysis of the coating liquid confirmed that the change in the composition of the coating liquid was 1% or less.)”.

The series is the same for the next values; noted with them: summary in words.
`C=CC(=O)OCCCCCCOc1ccc(C(=O)Oc2ccc(-c3ccc(OC(=O)c4ccc(OCCCCCCOC(=O)C=C)cc4)cc3C=NN=C3c4ccccc4-c4ccccc43)cc2)cc1` [1-hk-86]: the Preservation stability entry is on record as “high”.

Take `C=CC(=O)OCCCCCCOc1ccc(C(=O)Oc2ccc(-c3ccc(OC(=O)c4ccc(OCCCCCCOC(=O)C=C)cc4)c(/C=N/Nc4nc5ccccc5s4)c3)cc2)cc1` [1-hk-84]: the Preservation stability entry is given as “high”.
